Tests used:
Type in all cases: functional
K562 = test: Growth inhibition of human K562 cells after 48 hrs by sulforhodamine B assay; conditions: K562, 48 h
SK-MEL-5 = test: Growth inhibition of human SK-MEL-5 cells after 48 hrs by sulforhodamine B assay; conditions: SK-MEL-5, 48 h
U-251 = test: Growth inhibition of human U251 cells after 48 hrs by sulforhodamine B assay; conditions: U-251, 48 h
[1] = Growth inhibition of human NCI-ADR-RES cells after 48 hrs by sulforhodamine B assay
[2] = Growth inhibition of human SF539 cells after 48 hrs by sulforhodamine B assay; conditions: SF-539, 48 h
[3] = Growth inhibition of human Hs 578T cells after 48 hrs by sulforhodamine B assay
SF-268 = test: Growth inhibition of human SF268 cells after 48 hrs by sulforhodamine B assay; conditions: SF-268, 48 h
NCI-H522 = test: Growth inhibition of human NCI-H522 cells after 48 hrs by sulforhodamine B assay; conditions: NCI-H522, 48 h
UACC-62 = test: Growth inhibition of human UACC62 cells after 48 hrs by sulforhodamine B assay; conditions: UACC-62, 48 h
786-0 = test: Growth inhibition of human 786-0 cells after 48 hrs by sulforhodamine B assay; conditions: 786-0, 48 h
[4] = Growth inhibition of human EKVX cells after 48 hrs by sulforhodamine B assay
SK-MEL-28 = test: Growth inhibition of human SK-MEL-28 cells after 48 hrs by sulforhodamine B assay; conditions: SK-MEL-28, 48 h
A498 = test: Growth inhibition of human A498 cells after 48 hrs by sulforhodamine B assay; conditions: A498, 48 h
COLO 205 = test: Growth inhibition of human COLO205 cells after 48 hrs by sulforhodamine B assay; conditions: COLO 205, 48 h
CCRF-CEM = test: Growth inhibition of human CCRF-CEM cells after 48 hrs by sulforhodamine B assay
BT-549 = test: Growth inhibition of human BT549 cells after 48 hrs by sulforhodamine B assay; conditions: BT-549, 48 h
A549 = test: Growth inhibition of human A549/ATCC cells after 48 hrs by sulforhodamine B assay; conditions: A549, 48 h
SNB-75 = test: Growth inhibition of human SNB75 cells after 48 hrs by sulforhodamine B assay; conditions: SNB-75, 48 h
MDA-MB-231 = test: Growth inhibition of human MDA-MB-231 cells after 48 hrs by sulforhodamine B assay; conditions: MDA-MB-231, 48 h
MCF7 = test: Growth inhibition of human MCF7 cells after 48 hrs by sulforhodamine B assay; conditions: MCF7, 48 h
SR = test: Growth inhibition of human SR cells after 48 hrs by sulforhodamine B assay
SF-295 = test: Growth inhibition of human SF295 cells after 48 hrs by sulforhodamine B assay; conditions: SF-295, 48 h
LOX IMVI = test: Growth inhibition of human LOXIMVI cells after 48 hrs by sulforhodamine B assay
HCT-116 = test: Growth inhibition of human HCT116 cells after 48 hrs by sulforhodamine B assay; conditions: HCT-116, 48 h
Paracentrotus lividus [5] = test: Microtubule destabilizing activity in sea urchin free-swimming blastula assessed as embryo spinning treated at 9 to 10 hrs post-fertilization measured after 0.15 to 15 hrs
IGROV-1 = test: Growth inhibition of human IGROV1 cells after 48 hrs by sulforhodamine B assay; conditions: IGROV-1, 48 h
M14 = test: Growth inhibition of human M14 cells after 48 hrs by sulforhodamine B assay; conditions: M14, 48 h
[6] = Growth inhibition of human UO31 cells after 48 hrs by sulforhodamine B assay; conditions: UO-31, 48 h
HL-60(TB) = test: Growth inhibition of human HL-60(TB) cells after 48 hrs by sulforhodamine B assay; conditions: HL-60, 48 h
KM12 = test: Growth inhibition of human KM12 cells after 48 hrs by sulforhodamine B assay; conditions: KM12, 48 h
MDA-MB-468 = test: Growth inhibition of human MDA-MB-468 cells after 48 hrs by sulforhodamine B assay; conditions: MDA-MB-468, 48 h
MOLT-4 = test: Growth inhibition of human MOLT4 cells after 48 hrs by sulforhodamine B assay; conditions: MOLT-4, 48 h
OVCAR-3 = test: Growth inhibition of human OVCAR3 cells after 48 hrs by sulforhodamine B assay; conditions: OVCAR-3, 48 h
SK-MEL-2 = test: Growth inhibition of human SK-MEL-2 cells after 48 hrs by sulforhodamine B assay; conditions: SK-MEL-2, 48 h
SNB-19 = test: Growth inhibition of human SNB19 cells after 48 hrs by sulforhodamine B assay; conditions: SNB-19, 48 h
SW-620 = test: Growth inhibition of human SW620 cells after 48 hrs by sulforhodamine B assay; conditions: SW-620, 48 h
[7] = Growth inhibition of human OVCAR4 cells after 48 hrs by sulforhodamine B assay; conditions: OVCAR-4, 48 h
MDA-MB-435 = test: Growth inhibition of human MDA-MB-435 cells after 48 hrs by sulforhodamine B assay; conditions: MDA-MB-435, 48 h
SK-OV-3 = test: Growth inhibition of human SKOV3 cells after 48 hrs by sulforhodamine B assay; conditions: SK-OV-3, 48 h
DU-145 = test: Growth inhibition of human DU145 cells after 48 hrs by sulforhodamine B assay; conditions: DU-145, 48 h
Paracentrotus lividus [8] = test: Antimitotic activity in sea urchin fertilized egg assessed as cleavage alteration treated at 8 to 20 mins post-fertilization measured at 2.5 to 5.5 hrs post-fertilization
HOP-62 = test: Growth inhibition of human HOP62 cells after 48 hrs by sulforhodamine B assay; conditions: HOP-62, 48 h
NCI-H460 = test: Growth inhibition of human NCI-H460 cells after 48 hrs by sulforhodamine B assay; conditions: NCI-H460, 48 h
[9] = Growth inhibition of human RXF393 cells after 48 hrs by sulforhodamine B assay; conditions: RXF 393, 48 h
[10] = Growth inhibition of human HCC2998 cells after 48 hrs by sulforhodamine B assay; conditions: HCC 2998, 48 h
SN12C = test: Growth inhibition of human SN12C cells after 48 hrs by sulforhodamine B assay
NCI-H23 = test: Growth inhibition of human NCI-H23 cells after 48 hrs by sulforhodamine B assay; conditions: NCI-H23, 48 h
Paracentrotus lividus [11] = test: Antimitotic activity in sea urchin fertilized egg assessed as cleavage arrest treated at 8 to 20 mins post-fertilization measured at 2.5 to 5.5 hrs post-fertilization
HCT-15 = test: Growth inhibition of human HCT15 cells after 48 hrs by sulforhodamine B assay; conditions: HCT-15, 48 h
T47D = test: Growth inhibition of human T47D cells after 48 hrs by sulforhodamine B assay
PC-3 = test: Growth inhibition of human PC3 cells after 48 hrs by sulforhodamine B assay; conditions: PC-3, 48 h
RPMI-8226 = test: Growth inhibition of human RPMI8226 cells after 48 hrs by sulforhodamine B assay; conditions: RPMI-8226, 48 h
HT-29 = test: Growth inhibition of human HT-29 cells after 48 hrs by sulforhodamine B assay; conditions: HT-29, 48 h
NCI-H226 = test: Growth inhibition of human NCI-H226 cells after 48 hrs by sulforhodamine B assay; conditions: NCI-H226, 48 h
OVCAR-8 = test: Growth inhibition of human OVCAR8 cells after 48 hrs by sulforhodamine B assay; conditions: OVCAR-8, 48 h

SMILES: COc1ccc(-c2c(-c3cc(OC)c4c(c3)OCO4)noc2N)cc1
- GI50 (K562): 19.3 nM
- GI50 (SK-MEL-5): 29.8 nM
- GI50 (U-251): 30.8 nM
- GI50 [1]: 19.1 nM
- GI50 [2]: 38.1 nM
- GI50 [3]: 32.4 nM
- GI50 (SF-268): 148 nM
- GI50 (NCI-H522): < 10 nM
- GI50 (UACC-62): 59.7 nM
- GI50 (786-0): 73.5 nM
- GI50 [4]: 10700 nM
- GI50 (SK-MEL-28): 13.6 nM
- GI50 (A498): 22 nM
- GI50 (COLO 205): 34.1 nM
- GI50 (CCRF-CEM): 36.3 nM
- GI50 (BT-549): 3920 nM
- GI50 (A549): 59.6 nM
- GI50 (SNB-75): 33.9 nM
- GI50 (MDA-MB-231): 124 nM
- GI50 (MCF7): 31.5 nM
- GI50 (SR): < 10 nM
- GI50 (SF-295): 22.8 nM
- GI50 (LOX IMVI): 57.9 nM
- GI50 (HCT-116): 46.3 nM
- EC (Paracentrotus lividus [5]): 0.05 µM
- GI50 (IGROV-1): 99.7 nM
- GI50 (M14): 32.3 nM
- GI50 [6]: 82.2 nM
- GI50 (HL-60(TB)): 35.1 nM
- GI50 (KM12): 18.1 nM
- GI50 (MDA-MB-468): 18.7 nM
- GI50 (MOLT-4): 71.4 nM
- GI50 (OVCAR-3): 21.9 nM
- GI50 (SK-MEL-2): 25.9 nM
- GI50 (SNB-19): 65.8 nM
- GI50 (SW-620): 29.4 nM
- GI50 [7]: 114 nM
- GI50 (MDA-MB-435): < 10 nM
- GI50 (SK-OV-3): 31.8 nM
- GI50 (DU-145): 47.2 nM
- EC (Paracentrotus lividus [8]): 0.0005 µM
- GI50 (HOP-62): 30.2 nM
- GI50 (NCI-H460): 35.2 nM
- GI50 [9]: 22.3 nM
- GI50 [10]: 118 nM
- GI50 (SN12C): 217 nM
- GI50 (NCI-H23): 37.8 nM
- EC (Paracentrotus lividus [11]): 0.002 µM
- GI50 (HCT-15): 48.2 nM
- GI50 (T47D): 39.4 nM
- GI50 (PC-3): 44 nM
- GI50 (RPMI-8226): 49.9 nM
- GI50 (HT-29): 34.6 nM
- GI50 (NCI-H226): 121 nM
- GI50 (OVCAR-8): 58.5 nM
